# From patent US10045983B2, “Heteroaryl pyridone and aza-pyrodine compounds” (Genentech, Inc., priority 2011, dated 2018)
# Like-named read-outs stand apart in the source and are kept apart here.
# Test: CD69 Whole Blood Assay (CD69 Hu Blood FACS)
# Format: cell-based, human
# Conditions: Lymphocyte, human whole blood, anti-IgM activated B lymphocytes, FACS, IC70
# Description: A CD69 Whole Blood Assay can be conducted on Formula I compounds to determine the ability of compounds to inhibit the production of CD69 by B lymphocytes in human whole blood activated by crosslinking surface IgM with goat F(ab′)2 anti-human IgM (Example 907). CD69 is a type II C-type lectin involved in lymphocyte migration and cytokine secretion. CD69 expression represents one of the earliest available indicators of leukocyte activation and its rapid induction occurs through transcriptional activation (Vazquez et al (2009) Jour. of Immunology Published Oct. 19, 2009, doi:10.4049/jimmunol.0900839). Concentration-dependent inhibition of antigen receptor stimulation by selective Btk inhibitors induces cell surface expression of the lymphocyte activation marker CD69 (Honigberg et al (2010) Proc. Natl. Acad. Sci. 107(29):13075-13080). Thus, CD69 inhibition by selective Btk inhibitors may be correlated with therapeutic efficacy of certain B-cell disorders.
# [1] = Table 2 (unit inferred), read-out: CD69 Hu Blood FACS (IC70)
# [2] = Table 1, read-out: CD69 Hu Blood FACS IC70
SMILES,IC70 [1] [nM],IC70 [2] [nM]
"CC(=O)N1CCn2nc(Nc3cc(-c4ccnc(-n5ncc6c7c(sc6c5=O)CCCC7)c4CO)cn(C)c3=O)cc2C1 [Example 247, 3-[4-[5-[(5-acetyl-6,7-dihydro-4H-pyrazolo[1,5-a]pyrazin-2-yl)amino]-1-methyl-6-oxo-3-pyridyl]-3-(hydroxymethyl)-2-pyridyl]-6,7,8,9-tetrahydrobenzothiopheno[2,3-d]pyridazin-4-one]",145,–
"Cn1cc(-c2ccnc(N3CCn4c(cc5c4CC(C)(C)C5)C3=O)c2CO)cc(Nc2cccc(N)n2)c1=O [Example 221, 3-[4-[5-[(6-amino-2-pyridyl)amino]-1-methyl-6-oxo-3-pyridyl]-3-(hydroxymethyl)-2-pyridyl]-7,7-dimethyl-1,2,6,8-tetrahydrocyclopenta[3,4]pyrrolo[3,5-b]pyrazin-4-one]",121,–
"CCN1CCn2nc(Nc3cc(-c4ccnc(N5CCc6c(cc7n6CCCC7)C5=O)c4CO)cn(C)c3=O)cc2C1 [Example 208, 2-[4-[5-[(5-ethyl-6,7-dihydro-4H-pyrazolo[1,5-a]pyrazin-2-yl)amino]-1-methyl-6-oxo-3-pyridyl]-3-(hydroxymethyl)-2-pyridyl]-3,4,6,7,8,9-hexahydropyrido[3,4-b]indolizin-1-one]",580,–
"CC[C@H]1CN(C2COC2)CCN1c1ccc(Nc2cc(-c3ccnc(N4CCn5c(cc6c5CCCC6)C4=O)c3CO)cn(C)c2=O)nc1 [Example 131, (S)-2-(4-(5-(5-(2-ethyl-4-(oxetan-3-yl)piperazin-1-yl)pyridin-2-ylamino)-1-methyl-6-oxo-1,6-dihydropyridin-3-yl)-3-(hydroxymethyl)pyridin-2-yl)-3,4,6,7,8,9-hexahydropyrazino[1,2-a]indol-1(2H)-one]",–,15.5
"Cc1cc(Nc2cc(-c3ccnc(-n4ncc5c6c(sc5c4=O)CCCC6)c3CO)cn(C)c2=O)no1 [Example 291, 3-[3-(hydroxymethyl)-4-[1-methyl-5-[(5-methylisoxazol-3-yl)amino]-6-oxo-3-pyridyl]-2-pyridyl]-6,7,8,9-tetrahydrobenzothiopheno[2,3-d]pyridazin-4-one]",843,–
"Cn1nc(Nc2cc(-c3ccnc(N4CCn5c(cc6c5CC(C)(C)C6)C4=O)c3CO)cn(C)c2=O)cc1C(=O)N1CCOCC1 [Example 280, 3-[3-(hydroxymethyl)-4-[1-methyl-5-[[1-methyl-5-(morpholine-4-carbonyl)pyrazol-3-yl]amino]-6-oxo-3-pyridyl]-2-pyridyl]-7,7-dimethyl-1,2,6,8-tetrahydrocyclopenta[3,4]pyrrolo[3,5-b]pyrazin-4-one]",14.1,–
"CN1CCn2nc(Nc3cc(-c4cncc(N5CCn6c(cc7c6CC(C)(C)C7)C5=O)c4CO)cn(C)c3=O)cc2C1 [Example 150, 2-[4-Hydroxymethyl-1′-methyl-5′-(5-methyl-4,5,6,7-tetrahydro-pyrazolo[1,5-a]pyrazin-2-ylamino)-6′-oxo-1′,6′-dihydro-[3,3′]bipyridinyl-5-yl]-7,7-dimethyl-3,4,7,8-tetrahydro-2H,6H-cyclopenta[4,5]pyrrolo[1,2-a]pyrazin-1-one]",–,31.6
"CN1CCn2nc(Nc3cc(-c4cncc(N5CCn6c(cc7c6CCCC7)C5=O)c4CO)cn(C)c3=O)cc2C1 [Example 138, 2-(4-(Hydroxymethyl)-5-(1-methyl-5-(5-methyl-4,5,6,7-tetrahydropyrazolo[1,5-a]pyrazin-2-ylamino)-6-oxo-1,6-dihydropyridin-3-yl)pyridin-3-yl)-3,4,6,7,8,9-hexahydropyrazino[1,2-a]indol-1(2H)-one]",–,353
"CC(=O)N1CCn2nc(Nc3cc(-c4ccnc(N5CCc6c(sc7c6CC(C)(C)C7)C5=O)c4CO)cn(C)c3=O)cc2C1 [Example 254, 3-[4-[5-[(5-acetyl-6,7-dihydro-4H-pyrazolo[1,5-a]pyrazin-2-yl)amino]-1-methyl-6-oxo-3-pyridyl]-3-(hydroxymethyl)-2-pyridyl]-7,7-dimethyl-1,2,6,8-tetrahydrocyclopenta[3,4]thieno[1,3-c]pyridin-4-one]",37.3,–
